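Method: 48-hour compound exposure of cells in 96-well plates, five concentrations, linear interpolation of endpoints. At the GI50, growth is halved.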 Active and inactive are the calls of the source. Cut-off read from the data, not from the text of the source: active = GI50 up to about 1.1 µM and inactive = higher.
Assays:
Assay in all cases: growth of human tumour cells (NCI), 48 h
786-0 = system: 786-0
A498 = system: A498
A549 = system: A549
ACHN = system: ACHN
CAKI-1 = system: CAKI-1
CCRF-CEM = system: CCRF-CEM
COLO 205 = system: COLO 205
DU-145 = system: DU-145
EKVX = system: EKVX
HCC 2998 = system: HCC 2998
HCT-116 = system: HCT-116
HCT-15 = system: HCT-15
HL-60 = system: HL-60
HOP-62 = system: HOP-62
HOP-92 = system: HOP-92
HT-29 = system: HT-29
Hs-578T = system: Hs-578T
K562 = system: K562
KM12 = system: KM12
LOX IMVI = system: LOX IMVI
M14 = system: M14
MCF7 = system: MCF7
MDA-MB-435 = system: MDA-MB-435
MDA-N = system: MDA-N
MOLT-4 = system: MOLT-4
NCI-H226 = system: NCI-H226
NCI-H23 = system: NCI-H23
NCI-H460 = system: NCI-H460
NCI-H522 = system: NCI-H522
NCI/ADR-RES = system: NCI/ADR-RES
OVCAR-3 = system: OVCAR-3
OVCAR-5 = system: OVCAR-5
OVCAR-8 = system: OVCAR-8
RPMI-8226 = system: RPMI-8226
RXF 393 = system: RXF 393
SF-268 = system: SF-268
SF-295 = system: SF-295
SF-539 = system: SF-539
SK-MEL-5 = system: SK-MEL-5
SK-OV-3 = system: SK-OV-3
SN12C = system: SN12C
SNB-75 = system: SNB-75
SR = system: SR
SW-620 = system: SW-620
T47D = system: T47D
TK-10 = system: TK-10
UACC-257 = system: UACC-257
UACC-62 = system: UACC-62
UO-31 = system: UO-31
IGROV-1 = system: IGROV-1
MDA-MB-231 = system: MDA-MB-231
Malme-3M = system: Malme-3M
OVCAR-4 = system: OVCAR-4
PC-3 = system: PC-3
SK-MEL-28 = system: SK-MEL-28
SK-MEL-2 = system: SK-MEL-2
SNB-19 = system: SNB-19
U-251 = system: U-251

**Q.** Which results are given for C=C1CC2CC(=O)C(O)C(C1)C2 (stereo not given)?
**A.** GI50 (786-0): > 100 µM (inactive); GI50 (A498): > 100 µM (inactive); GI50 (A549): > 100 µM (inactive); GI50 (ACHN): > 100 µM (inactive); GI50 (CAKI-1): > 100 µM (inactive); GI50 (CCRF-CEM): > 100 µM (inactive); GI50 (COLO 205): > 100 µM (inactive); GI50 (DU-145): > 100 µM (inactive); GI50 (EKVX): > 100 µM (inactive); GI50 (HCC 2998): > 100 µM (inactive); GI50 (HCT-116): > 100 µM (inactive); GI50 (HCT-15): > 100 µM; GI50 (HL-60): > 100 µM (inactive); GI50 (HOP-62): > 100 µM (inactive); GI50 (HOP-92): > 100 µM (inactive); GI50 (HT-29): > 100 µM (inactive); GI50 (Hs-578T): > 100 µM (inactive); GI50 (K562): > 100 µM (inactive); GI50 (KM12): > 100 µM (inactive); GI50 (LOX IMVI): > 100 µM (inactive); GI50 (M14): > 100 µM (inactive); GI50 (MCF7): > 100 µM (inactive); GI50 (MDA-MB-435): > 100 µM (inactive); GI50 (MDA-N): > 100 µM (inactive); GI50 (MOLT-4): > 100 µM (inactive); GI50 (NCI-H226): > 100 µM (inactive); GI50 (NCI-H23): 90.8 µM (inactive); GI50 (NCI-H460): > 100 µM (inactive); GI50 (NCI-H522): > 100 µM (inactive); GI50 (NCI/ADR-RES): > 100 µM (inactive); GI50 (OVCAR-3): > 100 µM (inactive); GI50 (OVCAR-5): > 100 µM (inactive); GI50 (OVCAR-8): > 100 µM (inactive); GI50 (RPMI-8226): > 100 µM (inactive); GI50 (RXF 393): > 100 µM (inactive); GI50 (SF-268): > 100 µM (inactive); GI50 (SF-295): > 100 µM (inactive); GI50 (SF-539): > 100 µM (inactive); GI50 (SK-MEL-5): > 100 µM (inactive); GI50 (SK-OV-3): > 100 µM (inactive); GI50 (SN12C): > 100 µM (inactive); GI50 (SNB-75): 58.5 µM (inactive); GI50 (SR): > 100 µM (inactive); GI50 (SW-620): > 100 µM (inactive); GI50 (T47D): 69 µM (inactive); GI50 (TK-10): > 100 µM (inactive); GI50 (UACC-257): > 100 µM (inactive); GI50 (UACC-62): > 100 µM (inactive); GI50 (UO-31): > 100 µM (inactive)

**Q.** What does the source list for NC(=O)/N=C1\NCCC(=O)N1CCc1c[nH]c2ccccc12?
**A.** GI50 (786-0): 24 µM (inactive); GI50 (A498): 17.3 µM (inactive); GI50 (A549): 18.9 µM (inactive); GI50 (ACHN): 21.5 µM (inactive); GI50 (CAKI-1): 0.426 µM (active); GI50 (CCRF-CEM): 14.4 µM (inactive); GI50 (COLO 205): 14.1 µM (inactive); GI50 (DU-145): 21 µM (inactive); GI50 (EKVX): 14.6 µM (inactive); GI50 (HCC 2998): 19.4 µM (inactive); GI50 (HCT-116): 12.4 µM (inactive); GI50 (HCT-15): 20 µM; GI50 (HL-60): 19.2 µM (inactive); GI50 (HOP-62): 19.4 µM (inactive); GI50 (HT-29): 17.1 µM (inactive); GI50 (Hs-578T): 20.5 µM (inactive); GI50 (IGROV-1): 21.2 µM (inactive); GI50 (K562): 12.4 µM (inactive); GI50 (KM12): 37.8 µM (inactive); GI50 (LOX IMVI): 11 µM (inactive); GI50 (M14): 14.8 µM (inactive); GI50 (MDA-MB-231): 8.09 µM (inactive); GI50 (MDA-MB-435): 17.8 µM (inactive); GI50 (MDA-N): 19.9 µM (inactive); GI50 (MOLT-4): 14.5 µM (inactive); GI50 (Malme-3M): 18.4 µM (inactive); GI50 (NCI-H226): 18.2 µM (inactive); GI50 (NCI-H23): 22.7 µM (inactive); GI50 (NCI-H460): 16.3 µM (inactive); GI50 (NCI-H522): 25.7 µM (inactive); GI50 (NCI/ADR-RES): 17.2 µM (inactive); GI50 (OVCAR-3): 16 µM (inactive); GI50 (OVCAR-4): 19 µM (inactive); GI50 (OVCAR-5): 39.4 µM (inactive); GI50 (OVCAR-8): 17.9 µM (inactive); GI50 (PC-3): 11.9 µM (inactive); GI50 (RPMI-8226): 18.7 µM (inactive); GI50 (RXF 393): 12.1 µM (inactive); GI50 (SF-268): 13.8 µM (inactive); GI50 (SF-295): 41.2 µM (inactive); GI50 (SF-539): 15.6 µM (inactive); GI50 (SK-MEL-28): 20.9 µM (inactive); GI50 (SK-MEL-2): 14.2 µM (inactive); GI50 (SK-MEL-5): 18.7 µM (inactive); GI50 (SK-OV-3): 50.7 µM (inactive); GI50 (SN12C): 21.9 µM (inactive); GI50 (SNB-19): 21.4 µM (inactive); GI50 (SNB-75): 10.2 µM (inactive); GI50 (SR): 25.8 µM (inactive); GI50 (SW-620): 26.7 µM (inactive); GI50 (T47D): 27.5 µM (inactive); GI50 (TK-10): 17.5 µM (inactive); GI50 (U-251): 45.2 µM (inactive); GI50 (UACC-257): 18.5 µM (inactive); GI50 (UACC-62): 18.2 µM (inactive); GI50 (UO-31): 15.9 µM (inactive)

**Q.** Which results are given for C=CCCC1CCCCC/C1=N\N(C)C (stereo not given)?
**A.** GI50 (786-0): > 100 µM (inactive); GI50 (A498): > 100 µM (inactive); GI50 (A549): > 100 µM (inactive); GI50 (ACHN): > 100 µM (inactive); GI50 (CAKI-1): > 100 µM (inactive); GI50 (CCRF-CEM): > 100 µM (inactive); GI50 (COLO 205): > 100 µM (inactive); GI50 (DU-145): > 100 µM (inactive); GI50 (EKVX): > 100 µM (inactive); GI50 (HCT-116): > 100 µM (inactive); GI50 (HCT-15): > 100 µM; GI50 (HL-60): > 100 µM (inactive); GI50 (HOP-62): > 100 µM (inactive); GI50 (HOP-92): > 100 µM (inactive); GI50 (HT-29): > 100 µM (inactive); GI50 (Hs-578T): > 100 µM (inactive); GI50 (IGROV-1): > 100 µM (inactive); GI50 (K562): > 100 µM (inactive); GI50 (KM12): > 100 µM (inactive); GI50 (LOX IMVI): > 100 µM (inactive); GI50 (M14): > 100 µM (inactive); GI50 (MCF7): > 100 µM (inactive); GI50 (MDA-MB-231): > 100 µM (inactive); GI50 (MDA-MB-435): > 100 µM (inactive); GI50 (MDA-N): > 100 µM (inactive); GI50 (MOLT-4): > 100 µM (inactive); GI50 (NCI-H226): > 100 µM (inactive); GI50 (NCI-H23): > 100 µM (inactive); GI50 (NCI-H460): > 100 µM (inactive); GI50 (NCI-H522): > 100 µM (inactive); GI50 (NCI/ADR-RES): > 100 µM (inactive); GI50 (OVCAR-3): > 100 µM (inactive); GI50 (OVCAR-4): > 100 µM (inactive); GI50 (OVCAR-5): > 100 µM (inactive); GI50 (OVCAR-8): > 100 µM (inactive); GI50 (PC-3): > 100 µM (inactive); GI50 (RPMI-8226): > 100 µM (inactive); GI50 (SF-268): > 100 µM (inactive); GI50 (SF-295): > 100 µM (inactive); GI50 (SF-539): > 100 µM (inactive); GI50 (SK-MEL-28): > 100 µM (inactive); GI50 (SK-MEL-2): > 100 µM (inactive); GI50 (SK-MEL-5): > 100 µM (inactive); GI50 (SK-OV-3): > 100 µM (inactive); GI50 (SN12C): > 100 µM (inactive); GI50 (SNB-19): > 100 µM (inactive); GI50 (SNB-75): > 100 µM (inactive); GI50 (SR): > 100 µM (inactive); GI50 (SW-620): > 100 µM (inactive); GI50 (T47D): > 100 µM (inactive); GI50 (TK-10): > 100 µM (inactive); GI50 (U-251): > 100 µM (inactive); GI50 (UACC-257): > 100 µM (inactive); GI50 (UACC-62): > 100 µM (inactive); GI50 (UO-31): > 100 µM (inactive)
